Key:
[1] = system: Ang-II-induced atherosclerosis in ApoE−/− mice; assay: Ang-II-induced aortic aneurysm and atheromatous plaque formation in ApoE−/− mice
Description: (§1) Experiments were conducted in 2-month-old male apolipoprotein E knockout (ApoE^−/−) mice according to the guidelines formulated for care and use of animals in scientific research (ICMR, New Delhi, India) at a CPCSEA (Committee for the Purpose of Control and Supervision of Experiments on Animals) registered animal facility. […] Animals were randomly divided into 3 groups each n=7:1) control 2) Ang-II treatment and 3) Mito-Esculetin+Ang-II treatment. Ang-II and Mito-Esculetin treatment groups received Ang-II (sigma) at a dose of 1.44 mg/kg/day for 6 weeks through sub-cutaneous route where as control group received normal saline. Mito-Esculetin treatment group received the compound at a dose of 0.5 mg/kg/day in normal drinking water. All animals were fed on normal chow throughout the study. After 6 weeks, all groups of animals were sacrificed as per standard protocols for euthanasia.
(§2) We further analyzed the vascular remodelling employing histological stains in tissue sections of thoracic aortas. […] In tune with this, we have also measured Mac-3 levels by flow cytometry.

[2] = system: AMPK1-α phosphorylation (Thr-172); assay: Western blot of AMPK phosphorylation in HAEC; type: cell-based, human
Description: Previously, it was shown that AMPK co-immunoprecipitates with cardiac endothelial NO synthase (eNOS) and phosphorylates Ser-1177 in the presence of Ca^2+-calmodulin (CaM) to activate eNOS both in vitro and during ischaemia in rat hearts (FEBS Lett. (1999) 443:285-289). To test whether Mito-Esc mediates increased phosphorylation of eNOS through AMPK activation, initially, HAEC were treated various concentrations of Mito-Esc (1-5 μM) for 8 h and AMPK1-α phosphorylation (Thr-172) levels were measured. […] Next, we investigated the phospho-AMPK1-α levels in HAEC treated with H2O2 in the presence or absence of either Mito-Esc or native esculetin.

[3] = system: eNOS phosphorylation (Ser-1177); assay: Western blot of eNOS phosphorylation in HAEC; type: cell-based, human; conditions: 8 h
Description: To gain mechanistic insight on Mito-Esc-mediated protection of endothelial cells from oxidant-induced endothelial cell death, initially we hypothesized that Mito-Esc may augment intracellular nitric oxide generation. To study this, HAEC were treated with both Mito-Esc and esculetin in the presence or absence of H2O2 for a period of 4 h and nitric oxide (NO) levels were monitored by DAF-2 derived green fluorescence. Previously, it has been shown that DAF-2 forms a fluorescent triazole-type product in the presence of an oxidant derived from nitric oxide and oxygen interaction (Proc. Natl. Acad. Sci. USA 99: 11127-11132; 2002.; Am. J. Physiol. Regul. Integ. Comp. Physiol. 286:R344-R431; 2004). […] Next, we investigated the possible role of endothelial nitric oxide synthase (eNOS) in mediating the Mito-Esc induced NO generation in HAEC. For this, endothelial cells were treated with various concentrations of Mito-Esc (1-5 μM) for a period of 8 h. […] To further substantiate the results of DAF fluorescence, eNOS phosphorylation was measured in HAEC incubated with either with H2O2 or Ang-II for 8 h in cells pretreated with Mito-Esc or native esculetin. It was observed that both H2O2 and Ang-II caused a reduction in Phospho eNOS (Ser-1177) levels (FIG. 4D). Ang-II treatment imposed a drastic inhibition of phospho-eNOS levels when compared to H2O2 treatment in endothelial cells (FIG. 4D).

HAEC aging / senescence = assay: Senescence-associated β-galactosidase staining; type: cell-based, human
Description: Low and high passage number (which reflects young and aged) endothelial cells (HAEC) cells were treated with various concentrations of H2O2 (50-500 μM)) for 8 h. Cells were washed in PBS, fixed for […] (room temperature) in 2% formaldehyde/0.2% glutaraldehyde, washed, and incubated at 37° C. with fresh senescence associated β-Gal (SA-,β-Gal) stain solution: 1 mg of 5-bromo-4-chloro-3-indolyl β-D-galactoside (X-Gal) per ml (stock=20 mg of dimethylformamide per ml)/40 mM citric acid/sodium phosphate, pH 6.0; 5 mM potassium ferrocyanide/5 mM potassium ferricyanide/150 mM NaCl/2 mM MgCl2. Staining was visualized after 24 h using a phase contrast microscope.
To study if Mti-Esc influences vascular aging; we have studied its effect on human aortic endothelial cell (HAEC) aging. For this, we used HAEC of different passages (representing different age) from P6 (young age) to P16 (old age). Also we have grown HAEC with Mito-Esc (2.5 μM) for six generations (six passages) to understand its chronic effects in regulating endothelial cell aging phenomenon.

[4] = system: mitochondrial content in HAEC; assay: Mitotracker staining of mitochondrial content; conditions: 2.5 μM, 8 h
Description: Mitochondrial content in cells was assessed by selectively loading the mitochondria with the red fluorescent dye Mitotracker (Invitrogen, Carlsbad, Calif.).

[5] = system: Ang-II-induced atherosclerosis in ApoE−/− mice; assay: Serum lipid profile of Ang-II treated ApoE−/− mice; type: in vivo
Description: as §1, §2

SIRT-3, PGC-1α, TFAM = conditions: HAEC, 8 h
Description: At the end of the treatments, HAECs were washed with ice-cold DPBS and resuspended in RIPA buffer (20 mM Tris-HCl, pH 7.4/2.5 mM EDTA/1% Triton X-100/1% sodium deoxycholate/1% SDS/100 mM NaCl/100 mM sodium fluoride) containing protease inhibitor cocktail and phosphatase inhibitor cocktail-2 and -3. The lysate was centrifuged for 15 min at 12000×g. […] Protein bands were detected by using HRP substrate (Millipore-luminata). All the antibodies used for this study were from CST.
Next we investigated the ability of Mito-Esc to modulate the mitochondrial biogenetic regulators namely, silent mating type information regulation 2 homolog (SIRT)-3, Peroxisome proliferator-activated receptor-gamma coactivator (PGC)-1α and mitochondrial transcription factor A (TFAM).

[6] = system: human aortic endothelial cells (HAEC); assay: Trypan blue cell viability assay, oxidant-induced endothelial cell death; type: cell-based; conditions: 2.5 μM, 2 h pretreatment, H2O2 500 μM or Ang-II 500 nM, 24 h
Description: Human aortic endothelial cells (HAECs) were obtained from ATCC (Manassas, Va.) and maintained (37° C. 5% CO2) in basal medium supplemented with 10% FBS, VEGF (5 ng/mL), hEGF (5 ng/mL), hFGF (5 ng/mL), IGF-1 (15 ng/mL), ascorbic acid (50 μg/mL), hydrocortisone (1 μg/mL), amphotericin (15 ng/mL), gentamicin (30 ng/mL) and heparin (0.75 Units/mL). Cells used in this study were between passages 4 and 9. Esculetin, Mito-Esc, TPP and nitric oxide synthase inhibitor (L-NAME) were added 2 h before the addition of H2O2 or Ang-II.
At the end of the treatments, cells were harvested and re-suspended in 0.4% trypan blue (Life Technologies) and percent cell viability was counted using cell countess chamber (Life Technologies).
For this, cells were pretreated for 2 h with either Mito-Esc or esculetin before they were incubated with either H2O2 or Ang-II.

[7] = system: eNOS and AMPK phosphorylation; assay: eNOS and AMPK phosphorylation in total aorta lysate of ApoE−/− mice; conditions: compared to Ang-II alone or control
Description: Experiments were conducted in 2-month-old male apolipoprotein E knockout (ApoE^−/−) mice according to the guidelines formulated for care and use of animals in scientific research (ICMR, New Delhi, India) at a CPCSEA (Committee for the Purpose of Control and Supervision of Experiments on Animals) registered animal facility. […] Animals were randomly divided into 3 groups each n=7:1) control 2) Ang-II treatment and 3) Mito-Esculetin+Ang-II treatment. Ang-II and Mito-Esculetin treatment groups received Ang-II (sigma) at a dose of 1.44 mg/kg/day for 6 weeks through sub-cutaneous route where as control group received normal saline. Mito-Esculetin treatment group received the compound at a dose of 0.5 mg/kg/day in normal drinking water. […]
At the end of the treatments, HAECs were washed with ice-cold DPBS and resuspended in RIPA buffer (20 mM Tris-HCl, pH 7.4/2.5 mM EDTA/1% Triton X-100/1% sodium deoxycholate/1% SDS/100 mM NaCl/100 mM sodium fluoride) containing protease inhibitor cocktail and phosphatase inhibitor cocktail-2 and -3. […] Protein bands were detected by using HRP substrate (Millipore-luminata). […]
To further corroborate Mito-Esc's ability to protect from Ang-II-induced endothelial dysfunction during the progression of atheromatous plaque formation, we measured phospho-AMPK, AMPK, phospho-eNOS and eNOS protein levels in total aorta lysate.

[8] = system: caspase-3 and -8 activation in HAEC; assay: Caspase-3 and -8 activity in HAEC lysates; type: cell-based, human; conditions: 2.5 μM pretreatment
Description: HAEC were washed twice with cold DPBS and lysed in buffer containing 10-mM Tris-HCl, 10-mM NaH2PO4/Na2HPO4 (pH, 7.5). 130-mM NaCl. 1% Triton, and 10-mM sodium pyrophosphate. Cell lysates were incubated with either with caspase-3 fluorogenic substrate (N-acetyl-Asp-Glu-Val-Asp-7-amido-4-methylcoumarin) or caspase-8 fluorogenic substrate (N-acetyl-Ileu-Glu-Thr-Asp-7 amido-4-methylcoumarin) at 37° C. for 1 h. The 7-amido-4-methyl-coumarin liberated was measured in a multi mode reader (PerkinElmer) with λex=380 nm and λem=460 nm.

[9] = system: TNF-α, IFN-γ, MCP-1, Mac-3; assay: Serum proinflammatory cytokines and Mac-3 levels in ApoE−/− mice
Description: as §1, §2

[10] = ApoE−/− mice, thoracic aorta sections
[11] = serum, ApoE−/− mice, 45 days, Ang-II alone or Ang-II + Mito-Esc

For `O=c1cc(CCCCCCCC[P+](c2ccccc2)(c2ccccc2)c2ccccc2)c2cc(O)c(O)cc2o1.[Br-]` [Mito-Esc], the “thick fibrous mature connective tissue around atheroma (Masson trichrome staining)” value ([1]; ApoE−/− mice aorta) was “almost disappeared”, the “Ang-II-induced plaque extension, micro/pseudo aneurysm formation and maximal aortic diameters” value ([1]; ApoE−/− mice, thoracic and abdominal aorta, six weeks, 0.5 mg/kg/day in drinking water) was “significant reduction” and the “Ang-II induced severe atherosclerotic lesions (H&E staining of aorta)” value [1, 10] was “complete protection”. For the same compound, the “luminal diameter compared to Ang-II alone” value [1, 10] was “significantly restored”, the “concentration of maximum effect on phospho-AMPK1-α (Thr-172) levels” value ([2]; 1-5 μM, 8 h) was 2.5 µM and the “phospho-AMPK1-α (Thr-172) levels” value ([2]; 1-5 μM, 8 h) was “dose-dependent increase”. The “Ang-II-mediated inhibition of phospho-AMPK1-α” value ([2]; Ang-II 500 nM, co-incubation) was “made cells resistant”, the “AMPK1-α phosphorylation in the presence of H2O2” value ([2]; H2O2 500 μM, 2.5 μM, 8 h) was “greatly enhanced” and the “phosphorylation of eNOS at Ser-1177” value ([3]; 1-5 μM) was “dose-dependently increased”. For the same compound, the “oxidant-mediated decrease in eNOS-phosphorylation” value ([3]; H2O2 or Ang-II, pretreated cells) was “caused cells resistant to oxidant-mediated decrease”, the “endothelial cell aging (senescence-associated β-gal staining)” value (HAEC aging / senescence; HAEC, 2.5 μM chronic treatment for six passages) was “greatly attenuated” and the H2O2-induced premature senescence (HAEC aging / senescence; P6 (young age) HAEC, H2O2) was “significantly inhibited”. The “mitochondrial content, treatment alone compared to control” value [4] was “increased mitochondrial content”, the “Ang-II mediated increase in LDL, VLDL, triglycerides and total cholesterol” value ([5]; ApoE−/− mice serum) was “significantly reduced” and the “serum HDL levels” value ([5]; ApoE−/− mice serum) was “significant rise”. The HDL [5, 11] was 45.53 ± 0.4 mg/dL, the LDL [5, 11] was 218.40 ± 20.9 mg/dL and the “Total Cholesterol” value [5, 11] was 414.85 ± 8.2 mg/dL. For the same compound, the Triglycerides [5, 11] was 150.74 ± 3.8 mg/dL, the VLDL [5, 11] was 30.15 ± 0.4 mg/dL and the “RNA and protein levels of PGC-1α, TFAM” value (SIRT-3, PGC-1α, TFAM; 2.5 μM) was “significantly increased”. The SIRT-3 levels (SIRT-3, PGC-1α, TFAM; 1-5 μM) was “significantly increased”, the “Ang-II treatment induced inhibition of PGC-1A, TFAM and SIRT-3 levels” value (SIRT-3, PGC-1α, TFAM; Ang-II 500 nM, 2.5 μM) was “significantly reversed” and the “oxidant (H2O2 and Ang-II)-induced endothelial cell death” value [6] was “significantly inhibited”. For the same compound, the “phosphorylation statuses of eNOS and AMPK in total aorta lysate” value [7] was “significant increase”, the “H2O2 and Ang-II-induced caspase-3 and -8 activation” value [8] was “markedly resistant” and the “Ang-II-induced proinflammatory cytokines (TNF-α, IFN-γ, MCP-1) production” value ([9]; ApoE−/− mice serum) was “significant inhibition”. The “Mac-3 levels by flow cytometry” value ([9]; ApoE−/− mice, by 30 days of treatment) was “inhibition of Mac3 levels”.
